Results on two compounds are retold here after patent US10881642B2, “Autophagy enhancer and use thereof” (Industry-Academic Cooperation Foundation, Yonsei University, priority 2016, dated 2021).

Data set [1] has as its system HeLa cells. Kind of data set: Viability of Hela cells. The settings on record: 50-100 μM, 48 hrs. In kind it is cell-based. The protocol: FIG. 10 is the result of the experiments using compound of formula 2 (hereinafter referred to as MSL-7) of the present disclosure as an autophagic enhancer. FIG. 10A is the result of immuneblot using the antibodies indicated using Hela cells treated with MSL or MSL-7. FIG. 10B is the result of measuring the viability of Hela cells treated with vehicle control or various concentration of MSL-7 (50-100 μM) for 48 hrs. FIG. 10C is the result of DAPI stained nuclei of TFEB-GFP HeLa cells which were treated with vehicle control or MSL-7 for 4 hrs. The graph indicates the percentage of TFEB translocated into the nuclei. Error bars, S.D. *, P<0.05; **, P<0.01; ***, P<0.001.
Screening of autophagy enhancer. […] Firefly luciferase was determined after mixing 5 μl of lysate with 25 μl of Luciferase Assay Reagent II. Renilla luciferase was then determined after further addition of 20 ul of Stop&Glo Reagent. […] Cytotoxicity was determined by the measurement of LDH release in cell culture media using the LDH kit (Roche), according to the protocol from the manufacturer. […] Imaging and image quantification. […] Formation of acidic vesicular organelles was quantitated by staining the cells with acridine orange (Invitrogen, 5 ug/ml, 10 min). […] Cells or tissues were solubilized in lysis buffer supplemented with protease and phosphatase inhibitors and protein concentration was measured by the Bradford method. […]

In data set [2] the test system is HeLa cells. Nature of the data set: GCaMP3-ML1 lysosomal Ca2+ release imaging. The settings on record: GPN 200 μM; ionomycin 1 μM. In kind it is cell-based.
Protocol: HeLa cells were transfected with perilysosomal GCaMP3-ML1 calcium probe, and Ratiometric image (474 and 410 nm excitation) was obtained.
GCaMP3 Ca2+ Imaging. HeLa cells were grown on 15 mm coverslips and transfected with plasmid encoding the perilysosomal-localized ML1-GCaMP3 calcium probes.

Regarding `COc1oc(-c2ccccc2Cl)nc1S(=O)(=O)c1ccccc1` [MSL-7, 2-(2-chlorophenyl)-5-methoxy-4-(phenylsulfonyl) oxazole], the cellular toxicity result with HeLa cells [1] was “without cellular toxicity”.
For `CSc1oc(-c2ccccc2)nc1S(=O)(=O)c1ccc(F)cc1` [MSL], the “lysosomal Ca2+ release” value in the data set with HeLa cells [2] is “no increase of lysosomal Ca2+ release”.
